Source: the supplement of paper PMC10307832

Compound: Cc1nc(NC(=O)N2CCC[C@H]2C(N)=O)sc1-c1ccnc(C(C)(C)C(F)(F)F)c1 [Alpelisib]
Test: relative viability (nuclei count vs DMSO), 5 days (fraction); higher = more cells survive
How it was run: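 Viability was defined as treated-well nuclei divided by vehicle-well nuclei, with the median taken over replicate plates. Cells from lung cancer lines sat overnight at 37 °C in 1536-well plates, received five √10-spaced library-drug doses by pinning on vehicle-anchored plates, and grew 5 days without medium change before one-step fixation, permeabilisation and Hoechst staining, 4× imaging and MetaXpress nuclear counts. Only plates with control CV under 25% and at least one doubling were kept.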

Cell Line: IA-LM
- relative viability (0.04 µM): 0.979
- relative viability (0.1265 µM): 0.854
- relative viability (0.4 µM): 1.02
- relative viability (1.265 µM): 0.753
- relative viability (2 µM, anchor plate): 0.799
- relative viability (4 µM): 0.717

Cell Line: NCI-H1650
- relative viability (0.04 µM): 0.935
- relative viability (0.1265 µM): 0.801
- relative viability (0.4 µM): 1.06
- relative viability (1.265 µM): 0.814
- relative viability (4 µM): 0.815

Cell Line: NCI-H322M
- relative viability (0.04 µM): 0.879
- relative viability (0.1265 µM): 0.961
- relative viability (0.4 µM): 0.918
- relative viability (1.265 µM): 0.698
- relative viability (2 µM, anchor plate): 0.786
- relative viability (4 µM): 0.682

Cell Line: SW 1573
- relative viability (0.04 µM): 0.98
- relative viability (0.1265 µM): 0.916
- relative viability (0.4 µM): 0.94
- relative viability (1.265 µM): 0.704
- relative viability (2 µM, anchor plate): 0.733
- relative viability (4 µM): 0.649

Cell Line: HCC-827
- relative viability (0.04 µM): 1.02
- relative viability (0.1265 µM): 0.935
- relative viability (0.4 µM): 1.05
- relative viability (1.265 µM): 0.981
- relative viability (2 µM, anchor plate): 0.945
- relative viability (4 µM): 1

Cell Line: LU99A
- relative viability (0.04 µM): 0.899
- relative viability (0.1265 µM): 0.96
- relative viability (0.4 µM): 1.04
- relative viability (1.265 µM): 0.773
- relative viability (2 µM, anchor plate): 0.511
- relative viability (4 µM): 0.696

Cell Line: LK-2
- relative viability (0.04 µM): 0.885
- relative viability (0.1265 µM): 0.868
- relative viability (0.4 µM): 0.685
- relative viability (1.265 µM): 0.563
- relative viability (2 µM, anchor plate): 1.1
- relative viability (4 µM): 0.599

Cell Line: EMC-BAC-2
- relative viability (0.04 µM): 0.95
- relative viability (0.1265 µM): 0.821
- relative viability (0.4 µM): 0.981
- relative viability (1.265 µM): 0.672
- relative viability (2 µM, anchor plate): 0.751
- relative viability (4 µM): 0.604

Cell Line: NCI-H2342
- relative viability (0.04 µM): 0.927
- relative viability (0.1265 µM): 1.05
- relative viability (0.4 µM): 0.926
- relative viability (1.265 µM): 0.79
- relative viability (4 µM): 0.675

Cell Line: NCI-H460
- relative viability (0.04 µM): 0.989
- relative viability (0.1265 µM): 1.02
- relative viability (0.4 µM): 1.05
- relative viability (1.265 µM): 0.949
- relative viability (2 µM, anchor plate): 0.536
- relative viability (4 µM): 0.757

Cell Line: NCI-H441
- relative viability (0.04 µM): 1.1
- relative viability (0.1265 µM): 0.95
- relative viability (0.4 µM): 1.01
- relative viability (1.265 µM): 0.605
- relative viability (2 µM, anchor plate): 0.766
- relative viability (4 µM): 0.662

Cell Line: NCI-H661
- relative viability (0.04 µM): 0.973
- relative viability (0.1265 µM): 1.02
- relative viability (0.4 µM): 1.01
- relative viability (1.265 µM): 0.924
- relative viability (2 µM, anchor plate): 0.719
- relative viability (4 µM): 0.909

Cell Line: NCI-H727
- relative viability (0.04 µM): 0.904
- relative viability (0.1265 µM): 0.894
- relative viability (0.4 µM): 0.893
- relative viability (1.265 µM): 0.789
- relative viability (2 µM, anchor plate): 0.586
- relative viability (4 µM): 0.565

Cell Line: NCI-H1651
- relative viability (0.04 µM): 0.891
- relative viability (0.1265 µM): 1.02
- relative viability (0.4 µM): 1.01
- relative viability (1.265 µM): 0.844
- relative viability (2 µM, anchor plate): 0.973
- relative viability (4 µM): 0.841

Cell Line: NCI-H1355
- relative viability (0.04 µM): 0.944
- relative viability (0.1265 µM): 0.96
- relative viability (0.4 µM): 1
- relative viability (1.265 µM): 0.876
- relative viability (2 µM, anchor plate): 0.855
- relative viability (4 µM): 0.867

Cell Line: NCI-H1793
- relative viability (0.04 µM): 0.851
- relative viability (0.1265 µM): 0.89
- relative viability (0.4 µM): 0.919
- relative viability (1.265 µM): 0.731
- relative viability (2 µM, anchor plate): 0.792
- relative viability (4 µM): 0.626

Cell Line: NCI-H1666
- relative viability (0.04 µM): 0.997
- relative viability (0.1265 µM): 0.98
- relative viability (0.4 µM): 1.13
- relative viability (1.265 µM): 0.84
- relative viability (2 µM, anchor plate): 0.977
- relative viability (4 µM): 0.8

Cell Line: NCI-H838
- relative viability (0.04 µM): 0.863
- relative viability (0.1265 µM): 0.921
- relative viability (0.4 µM): 0.933
- relative viability (1.265 µM): 0.706
- relative viability (2 µM, anchor plate): 1.03
- relative viability (4 µM): 0.689

Cell Line: NCI-H1975
- relative viability (0.04 µM): 0.918
- relative viability (0.1265 µM): 0.968
- relative viability (0.4 µM): 0.984
- relative viability (1.265 µM): 0.664
- relative viability (2 µM, anchor plate): 0.679
- relative viability (4 µM): 0.561

Cell Line: A-427
- relative viability (0.04 µM): 0.98
- relative viability (0.1265 µM): 0.886
- relative viability (0.4 µM): 0.965
- relative viability (1.265 µM): 0.871
- relative viability (2 µM, anchor plate): 1.09
- relative viability (4 µM): 0.911

Cell Line: SK-LU-1
- relative viability (0.04 µM): 1.07
- relative viability (0.1265 µM): 0.977
- relative viability (0.4 µM): 1.03
- relative viability (1.265 µM): 0.855
- relative viability (2 µM, anchor plate): 0.922
- relative viability (4 µM): 0.812

Cell Line: PC-3 [JPC-3]
- relative viability (0.04 µM): 1.1
- relative viability (0.1265 µM): 1.03
- relative viability (0.4 µM): 1.13
- relative viability (1.265 µM): 0.943
- relative viability (2 µM, anchor plate): 0.999
- relative viability (4 µM): 1.01

Cell Line: ChaGo-K-1
- relative viability (0.04 µM): 0.973
- relative viability (0.1265 µM): 0.875
- relative viability (0.4 µM): 1.02
- relative viability (1.265 µM): 0.871
- relative viability (4 µM): 0.75

Cell Line: NCI-H2023
- relative viability (0.04 µM): 0.876
- relative viability (0.1265 µM): 0.928
- relative viability (0.4 µM): 0.93
- relative viability (1.265 µM): 0.649
- relative viability (2 µM, anchor plate): 0.6
- relative viability (4 µM): 0.5

Cell Line: LXF-289
- relative viability (0.04 µM): 0.988
- relative viability (0.1265 µM): 1.11
- relative viability (0.4 µM): 1.05
- relative viability (1.265 µM): 1
- relative viability (2 µM, anchor plate): 1.06
- relative viability (4 µM): 0.961

Cell Line: EBC-1
- relative viability (0.04 µM): 0.942
- relative viability (0.1265 µM): 0.904
- relative viability (0.4 µM): 1.15
- relative viability (1.265 µM): 0.853
- relative viability (2 µM, anchor plate): 0.866
- relative viability (4 µM): 0.862

Cell Line: LOU-NH91
- relative viability (0.04 µM): 0.961
- relative viability (0.1265 µM): 0.806
- relative viability (0.4 µM): 0.859
- relative viability (1.265 µM): 0.753
- relative viability (2 µM, anchor plate): 0.732
- relative viability (4 µM): 0.604

Cell Line: PC-14
- relative viability (0.04 µM): 1.01
- relative viability (0.1265 µM): 1
- relative viability (0.4 µM): 1.03
- relative viability (1.265 µM): 0.89
- relative viability (2 µM, anchor plate): 0.908
- relative viability (4 µM): 0.973

Cell Line: Calu-6
- relative viability (0.04 µM): 0.981
- relative viability (0.1265 µM): 0.976
- relative viability (0.4 µM): 1.1
- relative viability (1.265 µM): 0.941
- relative viability (2 µM, anchor plate): 0.98
- relative viability (4 µM): 0.922

Cell Line: H3255
- relative viability (0.04 µM): 1.03
- relative viability (0.1265 µM): 0.936
- relative viability (0.4 µM): 1.09
- relative viability (1.265 µM): 0.755
- relative viability (2 µM, anchor plate): 0.698
- relative viability (4 µM): 0.743

Cell Line: SW 900
- relative viability (0.04 µM): 0.944
- relative viability (0.1265 µM): 0.7
- relative viability (0.4 µM): 1
- relative viability (1.265 µM): 0.789
- relative viability (4 µM): 0.651

Cell Line: NCI-H650
- relative viability (0.04 µM): 0.877
- relative viability (0.1265 µM): 0.825
- relative viability (0.4 µM): 0.96
- relative viability (1.265 µM): 0.752
- relative viability (2 µM, anchor plate): 1.14
- relative viability (4 µM): 0.738

Cell Line: NCI-H1563
- relative viability (0.04 µM): 0.942
- relative viability (0.1265 µM): 0.971
- relative viability (0.4 µM): 0.948
- relative viability (1.265 µM): 0.768
- relative viability (2 µM, anchor plate): 0.966
- relative viability (4 µM): 0.84

Cell Line: NCI-H2170
- relative viability (0.04 µM): 0.946
- relative viability (0.1265 µM): 0.868
- relative viability (0.4 µM): 1.07
- relative viability (1.265 µM): 0.769
- relative viability (2 µM, anchor plate): 0.825
- relative viability (4 µM): 0.621

Cell Line: HCC-366
- relative viability (0.04 µM): 0.935
- relative viability (0.1265 µM): 1
- relative viability (0.4 µM): 1.09
- relative viability (1.265 µM): 0.947
- relative viability (2 µM, anchor plate): 0.443
- relative viability (4 µM): 0.627

Cell Line: EKVX
- relative viability (0.04 µM): 0.927
- relative viability (0.1265 µM): 0.921
- relative viability (0.4 µM): 1.12
- relative viability (1.265 µM): 0.821
- relative viability (2 µM, anchor plate): 0.893
- relative viability (4 µM): 0.614

Cell Line: NCI-H1792
- relative viability (0.04 µM): 0.89
- relative viability (0.1265 µM): 0.724
- relative viability (0.4 µM): 0.819
- relative viability (1.265 µM): 0.636
- relative viability (2 µM, anchor plate): 0.728
- relative viability (4 µM): 0.383

Cell Line: NCI-H1734
- relative viability (0.04 µM): 0.917
- relative viability (0.1265 µM): 0.857
- relative viability (0.4 µM): 1
- relative viability (1.265 µM): 0.644
- relative viability (2 µM, anchor plate): 0.674
- relative viability (4 µM): 0.508

Cell Line: NCI-H522
- relative viability (0.04 µM): 0.939
- relative viability (0.1265 µM): 0.903
- relative viability (0.4 µM): 0.923
- relative viability (1.265 µM): 0.807
- relative viability (4 µM): 0.736

Cell Line: CAL-12T
- relative viability (0.04 µM): 0.999
- relative viability (0.1265 µM): 0.989
- relative viability (0.4 µM): 1.09
- relative viability (1.265 µM): 0.963
- relative viability (2 µM, anchor plate): 1.14
- relative viability (4 µM): 0.955
